This passage reports IC50 results from patent publication US5516779A, “17β-substituted-6-azasteroid derivatives useful as 5α-reductase inhibitors” (Merck & Co., Inc., priority 1994, dated 1996).

The target of this experiment is T1, 5α-reductase type 1 (Homo sapiens, UniProt P18405).
T1 construct: Samples of human tissue were pulverized using a freezer mill and homogenized; from tissue; host or cells: human scalp tissue, crude nuclear pellet
T1 sequence (P18405 1-259): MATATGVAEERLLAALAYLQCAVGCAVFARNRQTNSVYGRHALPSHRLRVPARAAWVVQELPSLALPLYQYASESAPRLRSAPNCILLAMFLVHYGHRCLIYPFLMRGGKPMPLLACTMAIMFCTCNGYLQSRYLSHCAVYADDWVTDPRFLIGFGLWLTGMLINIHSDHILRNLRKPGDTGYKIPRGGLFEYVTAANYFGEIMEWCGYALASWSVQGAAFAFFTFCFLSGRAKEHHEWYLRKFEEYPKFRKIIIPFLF
In words: Inhibition of 5α-reductase type 1 (conversion of testosterone to DHT, human scalp homogenate). Format: biochemical. As to the method:
Samples of human tissue were pulverized using a freezer mill and homogenized in 40 mM potassium phosphate, pH 6.5, 5 mM magnesium sulfate, 25 mM potassium chloride, 1 mM phenylmethylsulfonyl fluoride, 1 mM dithiothreitol (DTT) containing 0.25 M sucrose using a Potter-Elvehjem homogenizer. A crude nuclear pellet was prepared by centrifugation of the homogenate at 1,500 x g for 15 min. The crude nuclear pellet was washed two times and resuspended in two volumes of buffer. Glycerol was added to the resuspended pellet to a final concentration of 20%. The enzyme suspension was frozen in aliquots at -80° C. The prostatic and scalp reductases were stable for at least 4 months when stored under these conditions.
The reaction mixture for the type 1 5α-reductase contained 40 mM potassium phosphate, pH 6.5, […] [7-^3 H]-testosterone, 1 mM dithiothreitol and 500 µM NADPH in a final volume of 100 μl. The reaction mixture for the type 2 5α-reductase contained 40 mM sodium citrate, pH 5.5, 0.3 mM [7-^3 H]-testosterone, 1 mM dithiothreitol and 500 µM NADPH in a final volume of 100 μl. Typically, the assay was initiated by the addition of 50-100 μg prostatic homogenate or 75-200 μg scalp homogenate and incubated at 37° C. After 10-50 min. the reaction was quenched by extraction with 250 μl of a mixture of 70% cyclohexane: 30% ethyl acetate containing 10 μl each DHT and T. The aqueous and organic layers were separated by centrifugation at 14,000 rpm in an Eppendorf microfuge. The organic layer was subjected to normal phase HPLC (10 cm Whatman partisil 5 silica column equilibrated in 1 ml/min 70% cyclohexane: 30% ethyl acetate; retention times: DHT, 6.8-7.2 min.; androstanediol, 7.6-8.0 min.; T, 9.1-9.7 min.). The HPLC system consisted of a Waters Model 680 Gradient System equipped with a Hitachi Model 655α autosampler, Applied Biosystems Model 757 -variable UV detector, and a Radiomatic Model A120 radioactivity analyzer. The conversion of T to DHT was monitored using the radioactivity flow detector by mixing the HPLC effluent with one volume of Flo Scint 1 (Radiomatic). Under the conditions described, the production of DHT was linear for at least 25 min. The only steroids observed with the human prostate and scalp preparations were T, DHT and androstanediol.
Compounds were dissolved in 100% ethanol. The compound to be tested was pre-incubated with the enzyme (either 5α-reductase type 1 or 2) prior to initiation by addition of substrate testosterone. IC50 values represent the concentration of inhibitor required to decrease enzyme conversion of testosterone to dihydrotestosterone by 50% of the control. IC50 values were determined using a 6 point titration where the concentration of the inhibitor was varied from 0.1 to 1000 nM. Representative compounds of this invention were tested in the above described assay for 5α-reductase type 1 and type 2 inhibition.

Setting [1] is: 5α-reductase type 1, pH 6.5, 6 point titration, 0.1 to 1000 nM, "under about", read-out: IC50 for inhibition of the type 1 isozyme.

SMILES strings stand for the structures. Like-named read-outs stand apart in the source and are kept apart here.

`CN1C[C@@H]2[C@H](CC[C@]3(C)C(=O)CC[C@@H]23)[C@@]2(C)CCC(=O)C=C12` [VII, 6-methyl-6-aza-androst-4-en-3,17-dione]: the IC50 under setting [1] is under 100 nM.
The same measure, in the same setting: the result for `CC(C)CCC[C@@H](C)[C@H]1CC[C@H]2[C@@H]3CNC4=CC(=O)CC[C@]4(C)[C@H]3CC[C@]12C` [XV, 6-aza-cholest-4-en-3-one] reads under 100 nM; that for `CCC[C@H]1CC[C@H]2[C@@H]3CN(C)C4=CC(=O)CC[C@]4(C)[C@H]3CC[C@]12C` [X, 6-methyl-17-propyl-6-aza-androst-4-en-3-one], under 100 nM.
Consider `CN1C[C@H]2[C@@H]3CCC[C@@]3(C)CC[C@@H]2[C@@]2(C)CCC(=O)C=C12` [XII, 6-methyl-6-aza-androst-4-en-3-one], for which the IC50 under setting [1] was under 100 nM.
In the case of `CC(C)CCC[C@@H](C)[C@H]1CC[C@H]2[C@@H]3CN(C)C4=CC(=O)CC[C@]4(C)[C@H]3CC[C@]12C` [XVI, 6-methyl-6-aza-cholest-4-en-3-one], the IC50 under setting [1] was under 100 nM.
For `CN1C[C@H]2[C@@H]3CC[C@H](O)[C@@]3(C)CC[C@@H]2[C@@]2(C)CCC(=O)C=C12` [XIII, 6-methyl-17-hydroxy-6-aza-androst-4-en-3-one], the IC50 is under 100 nM.
As to `CN1C[C@H]2[C@@H]3CC[C@H](OC(=O)NC(C)(C)C)[C@@]3(C)CC[C@@H]2[C@@]2(C)CCC(=O)C=C12` [XIV, 6-methyl-17-t-butylcarbamoyloxy-6-aza-androst-4-en-3-one], the IC50 under setting [1] was under 100 nM.

One may read the IC50 as the midpoint of a concentration-inhibition curve.
